Laboratory results taken from ChEMBL document CHEMBL5096141, “Protease targeted COVID-19 drug discovery and its challenges: Insight into viral main protease (Mpro) and papain-like protease (PLpro) inhibitors” (Bioorg Med Chem, 2021).

Tests used:
[1] = Inhibition of SARS-CoV PLpro expressed in Escherichia coli; set-up: species or system Severe acute respiratory syndrome-related coronavirus
[2] = target: T1, Replicase polyprotein 1ab (Severe acute respiratory syndrome coronavirus 2, UniProt P0DTD1); test: Inhibition of SARS-CoV-2 PLpro expressed in Escherichia coli
[3] = target: T1, Replicase polyprotein 1ab; test: Inhibition of recombinant SARS-CoV-2 MPro incubated for 10 mins in presence of fluorogenic substrate
[4] = target: T1, Replicase polyprotein 1ab; test: Inhibition of SARS-CoV-2 MPro
[5] = Inhibition of recombinant MERS-CoV MPro; set-up: species or system Middle East respiratory syndrome-related coronavirus
[6] = Inhibition of recombinant SARS-CoV MPro; set-up: species or system Severe acute respiratory syndrome-related coronavirus

SMILES	IC50 [1] [µM]	IC50 [4] [µM]	also measured
COc1ccc(CNC(=O)C2CCN(Cc3cccc4ccccc34)CC2)cc1	59	–	–
CC(=O)Nc1ccc(C)c(C(=O)N[C@@H](C)c2cccc3ccccc23)c1	2.6	–	IC50 [2]: 5 µM
O=C[C@@H](C[C@@H]1CCNC1=O)NC(=O)[C@@H](Cc1cccc(F)c1)NC(=O)c1cc2ccccc2[nH]1	–	0.04	IC50 [3]: 0.04 µM
Cc1ccc(N)cc1C(=O)N[C@@H](C)c1cccc2ccccc12	0.6	–	–
CC(C)(C)OC(=O)Nc1cccn([C@H](CC2CC2)C(=O)N[C@H](C[C@@H]2CCNC2=O)C(=O)C(=O)NCc2ccccc2)c1=O	–	–	IC50 [5]: 0.58 µM; IC50 [6]: 0.9 µM
Cc1ccccc1C(=O)NC(C)c1ccc2ccccc2c1 (stereo unspecified)	20	–	–
CN(C)C(=O)COC(=O)Cc1ccc(OC(=O)c2ccc(NC(=N)N)cc2)cc1 [CAMOSTAT]	–	> 20	–
Cc1cccc(C)c1OCC(=O)N[C@@H](Cc1ccccc1)[C@@H](O)C[C@H](Cc1ccccc1)NC(=O)[C@H](C(C)C)N1CCCNC1=O [LOPINAVIR]	–	> 20	–
